Assay results from paper PMC10675597, “Design, Synthesis, and Antisickling Investigation of a Thiazolidine Prodrug of TD-7 That Prolongs the Duration of Action of Antisickling Aromatic Aldehyde” (Pharmaceutics, 2023).

Columns and labels:
[1] = In-vivo pharmacokinetic study in rat; set-up: species or system male Sprague Dawley rats
Procedure: Investigations were carried out to examine the pharmacokinetic profiles of Pro-7, including the enteric-coated microspheres and the intravenous (IV) formulation using a one-period parallel design. The study design and conduct adhered to ethical guidelines and regulatory standards to ensure the welfare of the animals. The study was also conducted in strict adherence to internationally recognized guidelines for ethical research and regulatory standards. The principles of Good Clinical Practice (GCP), the guidelines set forth by the International Conference on Harmonization (ICH), and the rigorous standards of the European Medicines Agency (EMA) served as the framework for the study’s execution. The protocol for the animal study underwent a thorough evaluation and received formal approval from the Research Ethics Committee at the Faculty of Pharmacy, King Abdulaziz University, Saudi Arabia.
Male Sprague Dawley rats, each with an average weight of 250 g were housed in a controlled facility with a 12-h light/dark cycle, at constant temperature of 25 °C, with continuous access to both food and water throughout the study. All animals were acclimated to standard housing for at least 7 days. The animals were separated into distinct groups (n = 5). Group I was treated with a single PO (50 mg/kg body weight) dose, while Group II was administered a single IV (25 mg/kg body weight) dose of Pro-7. Additional three control groups were included to validate and enhance the robustness of our findings. These include a normal control group without treatment, a control IV administration group that was administered non-medicated SNEDDS formulation, and a control oral administration group that was given non-medicated oral formulation.
The oral formulation was suspended in 1% aqueous carboxymethyl cellulose. Blood samples from the jugular vein, at 0.25 (for IV only), 0.5, 2, 4, 8, 10, 12, and 24 h were collected into EDTA tubes. To determine the concentration of TD-7 in the whole blood, aliquots (45 µL) of blood samples were mixed with 20 µL of warfarin (used as IS) in a concentration of 1 µg/mL and 500 µL of 1% formic acid in acetonitrile. The vials were centrifuged for 5 min at 10,000 rpm, and 2 µL of the resulting solution was analyzed by LC-MS/MS.
The concentration of both TD-7 and Pro-7 in the collected blood samples were quantified using LC–MS/MS method utilizing LLS/DMPK/005 Shimadzu-8045 LC-MS/MS instrument equipped with Lab solution 6.8 software. Linearity of the TD-7 and Pro-7 assay methods was verified within the concentration range 8.21–3776 and 20.4–9396 ng/mL, respectively. A regression coefficient (R^2) of more than 0.993 was obtained. The analytical method was validated in accordance with the FDA Bio-analytical Method Validation Guidelines 2003. Chromatographic separation was conducted on Atlantis C18 (4.6 × 50 mm, 3.5 µm) at 30 °C. The injection volume was 2 µL, the flow rate was adjusted at 0.7 mL/min, the total run time was 2.5 min, and the mobile phase consisted of 0.1% formic acid in acetonitrile:10 mM aqueous ammonium formate (70:30 v/v). The retention times for TD-7, Pro-7 and IS were 1.047, 1.178, and 1.503 min, respectively. The limit of quantification for TD-7 and Pro-7 was established at of 8.21 and 20.4, respectively.
Pharmacokinetic parameters were calculated using non-compartmental analysis with Kinetica TM (version 4, Thermo Electron Corporation, Waltham, MA, USA) software. The following parameters were determined: Maximum plasma concentration (Cmax), Elimination half-life (t½), Area under the plasma concentration-time curve from time 0 to the last measurable concentration (AUC0–t), Area under the plasma concentration-time curve from time 0 to infinity (AUC0–∞), Clearance (Cl), and Volume of distribution (Vd).
The t½ was determined as 0.693 divided by the elimination rate constant. […]

[2] = Solubility study of Pro-7 in solvents; assay type: physicochemical; conditions: 25 °C, 48 h
Procedure: The solubility of Pro-7 was tested in water, ethanol, methanol, dichloromethane, chloroform, and acetone. An excess amount of the Pro-7 was added to a known volume of each solvent in a screw cap vial. Each vial was kept in a shaking water bath at 25 °C for 48 h. The content of each vial was filtered using an Acrodisc® syringe filter of […] (Port Washington, NY, USA), and the concentration of Pro-7 determined spectrophotometrically at 296 nm.

[3] = Drug solubility in SNEDDS formulation; assay type: physicochemical; conditions: SNEDDS (oleic acid 15%, tween 80 10%, PEG 400 75%), 25 °C, 48 h
Procedure: To determine the drug solubility in the prepared SNEDDS formulation, excess amount (approximately 300 mg) of Pro-7 was added to 4 mL of the prepared SNEDDS. The mixture was vortex and kept in a shaking water bath at 25 °C for 48 h, and then filtered using Acrodisc® syringe filter ([…]) and the concentration of Pro-7 determined spectrophotometrically at 296 nm.

[4] = set-up: method as in PMID 34657559, PMID 9490025, PMID 10376886, PMID 11154732; conditions: cited from earlier work
sickling = system: sickling; set-up: method as in PMID 30289405; conditions: cited from earlier work
[5] = intravenous 25 mg/kg Pro-7, rat, blood, n = 5
[6] = intravenous 25 mg/kg Pro-7, rat, n = 5
[7] = oral 50 mg/kg Pro-7 (enteric-coated formulation), rat, blood, n = 5
[8] = oral 50 mg/kg Pro-7 (enteric-coated formulation), rat, n = 5

1-(2-(3-((6-(hydroxymethyl)pyridin-2-yl)methoxy)-5 methoxyphenyl)thiazolidin-4-yl)propan-1-one [Pro-7]
AUC0–t [1, 5]: 1830 ± 737 ng·h/mL
AUC0–∞ [1, 5]: 1956 ± 792 ng·h/mL
Cmax [1, 5]: 1426 ± 926 ng/mL
t½ [1, 5]: 4.98 ± 1.89 h
Cl [1, 6]: 238 ± 85.9 mL/min/kg
Vd [1, 6]: 98.9 ± 45.3 L/kg
AUC0–t [1, 7]: 672 ± 255 ng·h/mL
AUC0–∞ [1, 7]: 730 ± 225 ng·h/mL
Cmax [1, 7]: 469 ± 322 ng/mL
Tmax [1, 7]: 0.5 ± 0.0 h
t½ [1, 7]: 4.73 ± 1.22 h
Cl [1, 8]: 200.89 ± 34.3 mL/min/kg
Vd [1, 8]: 83.7 ± 22.1 L/kg
Fraction of drug absorbed (% F) ([1]; oral 50 mg/kg vs intravenous 25 mg/kg, rat): 18.4%
solubility ([2]; acetone): 11.64 mg/mL
solubility ([2]; chloroform): 66.43 mg/mL
solubility ([2]; dichloromethane): 54.89 mg/mL
solubility ([2]; ethanol): 85.98 mg/mL
solubility ([2]; methanol): 88.34 mg/mL
aqueous solubility ([2]; water): 0.165 mg/mL
solubility in the prepared SNEDDS formulation [3]: 68.94 mg/mL

COc1ccc(OCc2cccc(CO)n2)c(C=O)c1 [TD-7, 2-((6-(hydroxymethyl)pyridin-2-yl)methoxy)-5-methoxybenzaldehyde]
oral bioavailability (in words) [4]: low oral bioavailability
sickling inhibition potency over vanillin (sickling): several fold
